Assays:
rat duodenum = assay: in vitro sac permeation study, rat duodenum; details: for Papp Ratio (SNP/CTRL): SNP 3 mM pretreatment
Method: (§1) Animal experimental protocols (approval codes: P18-30, P19-09, and P20-14) were carried out in accordance with the Ethical Committee of Tokyo University of Pharmacy and Life Sciences. Male Wistar rats (8 weeks old) were obtained from Tokyo Laboratory Animals Science Co., Ltd. (Tokyo, Japan). Permeation studies of lipophilic drugs were carried out using the in vitro sac method, as previously described.
(§2) Based on these concentrations, the apparent permeability coefficients (Papp) of each test compound were calculated according to the following Equation (1):(1) Pappcm/s=dQ/dt×1/C0S where: • dQ/dt—the flux of the test compound in the serosal side, • C0—the initial concentration in the mucosal side, • S—the surface area of the intestinal lumen.

[1] = in vitro sac permeation study, rat duodenum; details: male, Wistar, rat, 200 μM test compound
Method: as §1, §2

[2] = in vitro sac permeation study, rat jejunum; details: male, Wistar, rat, 200 μM test compound
Method: (§3) Animal experimental protocols (approval codes: P18-30, P19-09, and P20-14) were carried out in accordance with the Ethical Committee of Tokyo University of Pharmacy and Life Sciences. Male Wistar rats (8 weeks old) were obtained from Tokyo Laboratory Animals Science Co., Ltd. (Tokyo, Japan). Permeation studies of lipophilic drugs were carried out using the in vitro sac method, as previously described. […] The serosal samples were collected at 0, 10, 20, 30, 40, 60, 90, and 120 min after administration, and analyzed using a reversed-phase HPLC system (LC-2000Plus; JASCO Co., Tokyo, Japan) or fluorescence microplate reader to determine the concentration of each test compound [15].
as §2

rat jejunum = assay: in vitro sac permeation study, rat jejunum; details: SNP 3 mM pretreatment
Method: as §3, §2

[3] = in vitro sac permeation study, rat ileum; details: male, Wistar, rat, 200 μM test compound
Method: as §3, §2

rat ileum = assay: in vitro sac permeation study, rat ileum; details: SNP 3 mM pretreatment
Method: as §3, §2

[4] = in vitro sac permeation study, rat colon; details: male, Wistar, rat, 200 μM test compound
Method: as §3, §2

rat colon = assay: in vitro sac permeation study, rat colon; details: SNP 3 mM pretreatment
Method: as §3, §2

[5] = Papp SNP, pretreated with SNP 3 mM for 60 min

effect on the SNP enhancement of griseofulvin permeability (rat duodenum; DTT 10 mM for 10 min before SNP 3 mM) | effect of pretreatment on flurbiprofen permeation (rat duodenum; SNP 3 mM 60 min, DTT 10 mM 10 min) | effect of pretreatment on griseofulvin permeation (rat duodenum; SNP or SFC 3 mM 60 min, DTT 10 mM 10 min) | Papp at 120 min, 200 μM ([1]; Papp CTRL, SNP-untreated) [×10⁻⁶ cm/s] | Papp at 120 min, 200 μM [1, 5] [×10⁻⁶ cm/s] | Papp Ratio (SNP/CTRL) (rat duodenum) | Papp at 120 min, 200 μM ([2]; Papp CTRL, SNP-untreated) [×10⁻⁶ cm/s] | Papp at 120 min, 200 μM [2, 5] [×10⁻⁶ cm/s] | Papp Ratio (SNP/CTRL) (rat jejunum) | Papp at 120 min, 200 μM ([3]; Papp CTRL, SNP-untreated) [×10⁻⁶ cm/s] | Papp at 120 min, 200 μM [3, 5] [×10⁻⁶ cm/s] | Papp Ratio (SNP/CTRL) (rat ileum) | Papp at 120 min, 200 μM ([4]; Papp CTRL, SNP-untreated) [×10⁻⁶ cm/s] | Papp at 120 min, 200 μM [4, 5] [×10⁻⁶ cm/s] | Papp Ratio (SNP/CTRL) (rat colon) | Compound | effect on the SNP enhancement of griseofulvin permeability (rat duodenum; c-PTIO 1 mM co-pre-treated with SNP 3 mM) | effect on the SNP-increased FD-4 permeation (rat duodenum; c-PTIO 1 mM with SNP 3 mM)
visibly disappeared | increased | increased |  |  |  |  |  |  |  |  |  |  |  |  | O[C@@H](CS)[C@@H](O)CS (racemic) [DTT, dithiothreitol] |  | 
 |  |  | 5.8 ± 1.7 | 13 ± 2.7 | 2.24 | 26 ± 11.9 | 32.7 ± 12.9 | 1.26 | 33.9 ± 11.3 | 39.8 ± 17.7 | 1.17 | 28.3 ± 2.5 | 19.4 ± 3.7 | 0.69 | CC(C(=O)O)c1ccc(-c2ccccc2)c(F)c1 (centres unmarked) [Flurbiprofen] |  | 
 |  |  | 8 ± 4.2 | 19.6 ± 4.1 | 2.45 | 42.2 ± 20 | 70.3 ± 19.2 | 1.67 | 24.3 ± 6 | 18.4 ± 4.4 | 0.76 | 39.6 ± 21.4 | 31.7 ± 11.1 | 0.80 | COC1=CC(=O)C[C@@H](C)[C@]12Oc1c(Cl)c(OC)cc(OC)c1C2=O [Griseofulvin] |  | 
 |  |  | 1.1 ± 0.6 | 1.3 ± 0.7 | 1.18 | 4.7 ± 1 | 4.3 ± 1.8 | 0.91 | 3.7 ± 1 | 3.9 ± 1 | 1.05 | 2.1 ± 1.1 | 3.5 ± 1.6 | 1.67 | CC(C)NCC(O)COc1cccc2ccccc12 (centres unmarked) [Propranolol] |  | 
 |  |  |  |  |  |  |  |  |  |  |  |  |  |  | CC1(C)N([O])C(c2ccc(C(=O)O)cc2)=[N+]([O-])C1(C)C [c-PTIO, Carboxy-PTIO] | inhibited | disappeared

Reference: PMC8587071, “Utilization of Sodium Nitroprusside as an Intestinal Permeation Enhancer for Lipophilic Drug Absorption Improvement in the Rat Proximal Intestine” (Molecules, 2021)
